This note sets out measurements from patent US9751926B2 (priority 2013, dated 2017).

Converted amounts (≈) assume the structure as drawn. Like-named read-outs stand apart in the source and are kept apart here. A value given as a limit tells only on which side of the number the result lay.

The target in one series is T1, human GIP receptor (Homo sapiens, UniProt P48546).
T1 construct: expressed in transfected cells
T1 sequence (P48546 22-466): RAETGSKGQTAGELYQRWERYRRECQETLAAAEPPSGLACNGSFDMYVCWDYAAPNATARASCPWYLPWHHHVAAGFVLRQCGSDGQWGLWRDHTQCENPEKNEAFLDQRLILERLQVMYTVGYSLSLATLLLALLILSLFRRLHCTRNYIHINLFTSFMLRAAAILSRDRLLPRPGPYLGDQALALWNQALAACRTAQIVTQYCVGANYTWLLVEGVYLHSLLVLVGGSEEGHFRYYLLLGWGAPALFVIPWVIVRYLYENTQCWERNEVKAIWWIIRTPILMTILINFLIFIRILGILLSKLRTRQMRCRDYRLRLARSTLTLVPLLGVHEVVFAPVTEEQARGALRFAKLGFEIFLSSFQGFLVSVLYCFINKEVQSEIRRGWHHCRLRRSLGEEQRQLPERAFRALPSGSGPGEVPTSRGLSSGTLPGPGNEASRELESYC
As to the kind of experiment: cAMP response (HTRF) of HEK-293 cells stably expressing human GIP receptor. It counts as cell-based. The note with it: Table 1; formed cAMP; read-out: EC50 hGIP R. The method, then: (§1) cAMP content of cells was determined using a kit from Cisbio Corp. (cat. no. 62AM4PEC) based on HTRF (Homogenous Time Resolved Fluorescence). For preparation, cells were split into T175 culture flasks and grown overnight to near confluency in medium (DMEM/10% FBS). Medium was then removed and cells washed with PBS lacking calcium and magnesium, followed by proteinase treatment with accutase (Sigma-Aldrich cat. no. A6964). Detached cells were washed and resuspended in assay buffer (1×HBSS; 20 mM HEPES, 0.1% BSA, 2 mM IBMX) and cellular density determined. They were then diluted to 400000 cells/ml and 25 μl-aliquots dispensed into the wells of 96-well plates. For measurement, 25 μl of test compound in assay buffer was added to the wells, followed by incubation for 30 minutes at room temperature.
A general note: TR-FRET usually uses a lanthanide donor and a delayed reading to cut background.

The next series concerns the target T2, human glucagon receptor (Homo sapiens, UniProt P47871).
T2 construct: expressed in transfected cells
Put plainly: cAMP response (HTRF) of HEK-293 cells stably expressing human glucagon receptor. It counts as cell-based. The settings on record: formed cAMP. The method, then: as §1

Another series is described as follows: physchem. It counts as physicochemical.
A further series deals with T3, human GLP-1 receptor (Homo sapiens, UniProt P43220).
T3 construct: expressed in transfected cells
T3 sequence (P43220 24-463): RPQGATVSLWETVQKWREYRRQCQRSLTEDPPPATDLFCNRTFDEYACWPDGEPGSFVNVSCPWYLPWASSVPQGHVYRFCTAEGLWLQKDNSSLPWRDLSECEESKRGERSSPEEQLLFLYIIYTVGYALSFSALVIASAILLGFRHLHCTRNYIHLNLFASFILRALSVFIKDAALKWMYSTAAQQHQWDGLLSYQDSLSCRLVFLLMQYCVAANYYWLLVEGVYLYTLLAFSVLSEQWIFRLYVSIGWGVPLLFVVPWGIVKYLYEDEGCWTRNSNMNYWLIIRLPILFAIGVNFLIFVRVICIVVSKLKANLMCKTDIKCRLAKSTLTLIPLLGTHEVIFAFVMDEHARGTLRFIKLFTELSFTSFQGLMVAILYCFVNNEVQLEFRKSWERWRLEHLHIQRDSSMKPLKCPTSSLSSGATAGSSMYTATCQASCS
Put plainly: cAMP response (HTRF) of HEK-293 cells stably expressing human GLP-1 receptor. The note with it: Table 6; formed cAMP; read-out: EC50 hGLP-1 R. It counts as cell-based. The method, then: as §1

The mark [1] stands for this setting: Table 6, read-out: EC50 hGLUC R.

T2 sequence (P47871 26-477): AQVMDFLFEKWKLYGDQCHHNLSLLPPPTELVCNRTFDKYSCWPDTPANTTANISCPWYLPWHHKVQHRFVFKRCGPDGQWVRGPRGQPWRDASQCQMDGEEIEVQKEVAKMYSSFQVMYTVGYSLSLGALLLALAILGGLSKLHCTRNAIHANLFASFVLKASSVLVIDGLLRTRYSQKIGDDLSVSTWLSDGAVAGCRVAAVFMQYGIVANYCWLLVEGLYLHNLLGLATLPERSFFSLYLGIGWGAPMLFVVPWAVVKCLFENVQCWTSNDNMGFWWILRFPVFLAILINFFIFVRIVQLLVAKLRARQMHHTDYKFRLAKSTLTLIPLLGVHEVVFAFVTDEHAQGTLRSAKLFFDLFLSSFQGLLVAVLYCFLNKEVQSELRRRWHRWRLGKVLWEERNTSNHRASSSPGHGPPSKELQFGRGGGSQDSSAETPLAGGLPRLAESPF

As usually defined, the EC50 is the concentration needed to bring the measured effect to its halfway point. Broadly, the solubility is the dissolved amount per volume that the medium holds. Lower therefore signals little dissolved substance. In the case of `CC[C@H](C)[C@H](NC(=O)[C@H](CO)NC(=O)[C@H](CC(C)C)NC(=O)[C@H](CC(=O)O)NC(=O)[C@H](CO)NC(=O)[C@@H](NC(=O)[C@H](Cc1ccccc1)NC(=O)[C@@H](NC(=O)CNC(=O)[C@H](CCC(=O)O)NC(=O)C(C)(C)NC(=O)[C@@H](N)Cc1ccc(O)cc1)[C@@H](C)O)[C@@H](C)O)C(=O)N[C@@H](CCC(N)=O)C(=O)N[C@@H](CC(C)C)C(=O)N[C@@H](CCC(=O)O)C(=O)N[C@@H](CCCCN)C(=O)N[C@@H](CCC(=O)O)C(=O)N[C@@H](C)C(=O)N[C@H](C(=O)N[C@@H](CCCNC(=N)N)C(=O)N[C@@H](CC(C)C)C(=O)N[C@@H](Cc1ccccc1)C(=O)N[C@H](C(=O)N[C@@H](CCC(=O)O)C(=O)N[C@@H](Cc1c[nH]c2ccccc12)C(=O)N[C@@H](CC(C)C)C(=O)N[C@@H](CCCCN)C(=O)N[C@@H](C)C(=O)NCC(=O)NCC(=O)N1CCC[C@H]1C(=O)N[C@@H](CO)C(=O)N[C@@H](CO)C(=O)NCC(=O)N[C@@H](C)C(=O)N1CCC[C@H]1C(=O)N1CCC[C@H]1C(=O)N1CCC[C@H]1C(=O)N[C@@H](CO)C(N)=O)[C@@H](C)CC)C(C)C` [SEQ ID NO 10, Y-Aib-EGTFTSDLSIQLEKEAVRLFIEWLKAGGPSSGAPPPS-NH2], the concentration giving a half-maximal response (EC50) on human GIP receptor was 12.5 nM; on human glucagon receptor (Table 1, read-out: EC50 hGlucagon R), more than 10000 nM. Further, the solubility in the series “physchem” (pH 4.5) is 0.934 mg/mL (≈ 224 µM); in the series “physchem” (pH 7.4) it was more than 1 mg/mL.
Consider `CCCC[C@H](NC(=O)[C@H](CCC(N)=O)NC(=O)[C@@H](NC(=O)[C@H](CO)NC(=O)[C@H](CC(C)C)NC(=O)[C@H](CC(=O)O)NC(=O)[C@H](CO)NC(=O)[C@@H](NC(=O)[C@H](Cc1ccccc1)NC(=O)[C@@H](NC(=O)CNC(=O)[C@H](CCC(=O)O)NC(=O)C(C)(C)NC(=O)[C@@H](N)Cc1ccc(O)cc1)[C@@H](C)O)[C@@H](C)O)[C@@H](C)CC)C(=O)N[C@@H](CCC(=O)O)C(=O)N[C@@H](CCCCN)C(=O)N[C@@H](CCC(=O)O)C(=O)N[C@@H](C)C(=O)N[C@H](C(=O)N[C@@H](CCCNC(=N)N)C(=O)N[C@@H](CC(C)C)C(=O)N[C@@H](Cc1ccccc1)C(=O)N[C@H](C(=O)N[C@@H](CCC(=O)O)C(=O)N[C@@H](Cc1c[nH]c2ccccc12)C(=O)N[C@@H](CC(C)C)C(=O)N[C@@H](CCCCN)C(=O)N[C@@H](C)C(=O)NCC(=O)NCC(=O)N1CCC[C@H]1C(=O)N[C@@H](CO)C(=O)N[C@@H](CO)C(=O)NCC(=O)N[C@@H](C)C(=O)N1CCC[C@H]1C(=O)N1CCC[C@H]1C(=O)N1CCC[C@H]1C(=O)N[C@@H](CO)C(=O)N[C@@H](CCCCN)C(N)=O)[C@@H](C)CC)C(C)C` [compound 12], for which the EC50 is 0.0013 nM on human GLP-1 receptor and more than 1000 nM at human glucagon receptor (setting [1]). Moreover, the solubility at 2 h turned out to be 0.943 mg/mL (≈ 220 µM) in “physchem” (pH 4.5) and 0.848 mg/mL (≈ 198 µM) in the series “physchem” (pH 7.4).
Consider `CC[C@H](C)[C@H](NC(=O)[C@H](CO)NC(=O)[C@H](CC(C)C)NC(=O)[C@H](CC(=O)O)NC(=O)[C@H](CO)NC(=O)[C@@H](NC(=O)[C@H](Cc1ccccc1)NC(=O)[C@@H](NC(=O)CNC(=O)[C@H](CCC(=O)O)NC(=O)C(C)(C)NC(=O)[C@@H](N)Cc1ccc(O)cc1)[C@@H](C)O)[C@@H](C)O)C(=O)N[C@@H](CCC(N)=O)C(=O)N[C@@H](CC(C)C)C(=O)N[C@@H](CCC(=O)O)C(=O)N[C@@H](CCC(=O)O)C(=O)N[C@@H](CCC(=O)O)C(=O)N[C@@H](C)C(=O)N[C@H](C(=O)N[C@@](C)(CCCN)C(=O)N[C@@H](CC(C)C)C(=O)N[C@@H](Cc1ccccc1)C(=O)N[C@H](C(=O)N[C@@H](CCC(=O)O)C(=O)N[C@@H](Cc1c[nH]c2ccccc12)C(=O)N[C@@H](CC(C)C)C(=O)N[C@@H](CCCCN)C(=O)N[C@@H](C)C(=O)NCC(=O)NCC(=O)N1CCC[C@H]1C(=O)N[C@@H](CO)C(=O)N[C@@H](CO)C(=O)NCC(=O)N[C@@H](C)C(=O)N1CCC[C@H]1C(=O)N1CCC[C@H]1C(=O)N1CCC[C@H]1C(=O)N[C@@H](CO)C(N)=O)[C@@H](C)CC)C(C)C` [compound 19], for which the EC50 at human GLP-1 receptor was 0.0012 nM; at human glucagon receptor (setting [1]), more than 1000 nM.
Taken in the same sequence, the figures for `CC[C@H](C)[C@H](NC(=O)[C@H](CO)NC(=O)[C@H](CC(C)C)NC(=O)[C@H](CC(=O)O)NC(=O)[C@H](CO)NC(=O)[C@@H](NC(=O)[C@H](Cc1ccccc1)NC(=O)[C@@H](NC(=O)CNC(=O)[C@H](CCC(=O)O)NC(=O)C(C)(C)NC(=O)[C@@H](N)Cc1ccc(O)cc1)[C@@H](C)O)[C@@H](C)O)C(=O)N[C@@H](CCC(N)=O)C(=O)N[C@@H](CC(C)C)C(=O)N[C@@H](CCC(=O)O)C(=O)N[C@@H](CCC(=O)O)C(=O)N[C@@H](CCC(=O)O)C(=O)N[C@@H](C)C(=O)N[C@H](C(=O)N[C@@](C)(CCCCN)C(=O)N[C@@H](CC(C)C)C(=O)N[C@@H](Cc1ccccc1)C(=O)N[C@H](C(=O)N[C@@H](CCC(=O)O)C(=O)N[C@@H](Cc1c[nH]c2ccccc12)C(=O)N[C@@H](CC(C)C)C(=O)N[C@@H](CCCCN)C(=O)N[C@@H](C)C(=O)NCC(=O)NCC(=O)N1CCC[C@H]1C(=O)N[C@@H](CO)C(=O)N[C@@H](CO)C(=O)NCC(=O)N[C@@H](C)C(=O)N1CCC[C@H]1C(=O)N1CCC[C@H]1C(=O)N1CCC[C@H]1C(=O)N[C@@H](CO)C(N)=O)[C@@H](C)CC)C(C)C` [compound 17] were 0.0011 nM and more than 1000 nM.
As for `CCCC[C@H](NC(=O)[C@H](CCC(N)=O)NC(=O)[C@@H](NC(=O)[C@H](CO)NC(=O)[C@H](CC(C)C)NC(=O)[C@H](CC(=O)O)NC(=O)[C@H](CO)NC(=O)[C@@H](NC(=O)[C@H](Cc1ccccc1)NC(=O)[C@@H](NC(=O)CNC(=O)[C@H](CCC(=O)O)NC(=O)C(C)(C)NC(=O)[C@@H](N)Cc1ccc(O)cc1)[C@@H](C)O)[C@@H](C)O)[C@@H](C)CC)C(=O)N[C@@H](CCC(=O)O)C(=O)N[C@@H](CCCCN)C(=O)N[C@@H](CCC(=O)O)C(=O)N[C@@H](C)C(=O)N[C@H](C(=O)N[C@@H](CCCNC(=N)N)C(=O)N[C@@H](CC(C)C)C(=O)N[C@@H](Cc1ccccc1)C(=O)N[C@H](C(=O)N[C@@H](CCC(=O)O)C(=O)N[C@@H](Cc1c[nH]c2ccccc12)C(=O)N[C@@H](CC(C)C)C(=O)N[C@@H](CCCCN)C(=O)N[C@@H](C)C(=O)NCC(=O)NCC(=O)N1CCC[C@H]1C(=O)N[C@@H](CO)C(=O)N[C@@H](CO)C(=O)NCC(=O)N[C@@H](C)C(=O)N1CCC[C@H]1C(=O)N1CCC[C@H]1C(=O)N1CCC[C@H]1C(=O)N[C@@H](CO)C(N)=O)[C@@H](C)CC)C(C)C` [compound 11], the figures for the EC50 at human GLP-1 receptor and at human glucagon receptor (setting [1]) were 0.001 nM and more than 1000 nM, respectively. Besides, the solubility at 2 h in “physchem” (pH 4.5) is 0.911 mg/mL (≈ 219 µM); in the series “physchem” (pH 7.4) it was more than 1 mg/mL.
